# Test results: PubChem BioAssay (NCI)
#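 Cultured in 96-well plates, cells were exposed to test compound for 48 hours across five concentrations. The concentration for full growth arrest is given as TGI.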
# Experiments:
# Experiment in all cases: DTP human tumour cell line panel, 48 h
# [1] = tested on: NCI-H522 lung
# [2] = tested on: SF-268 CNS
# [3] = tested on: PC-3 prostate
# [4] = tested on: HOP-62 NSCLC
# [5] = tested on: HCT-116 colon
# [6] = tested on: MALME-3M melanoma
# [7] = tested on: SK-MEL-2 melanoma
# [8] = tested on: DU-145 prostate
# [9] = tested on: OVCAR-5 ovarian
# [10] = tested on: M14 melanoma
# [11] = tested on: OVCAR-3 ovarian
# [12] = tested on: SF-295 CNS
# [13] = tested on: RXF 393 renal
# [14] = tested on: MDA-MB-231 breast
# [15] = tested on: COLO 205 colon
# [16] = tested on: A498 renal
# [17] = tested on: MDA-MB-435
# [18] = tested on: SK-OV-3 ovarian
# [19] = tested on: HS 578T breast
# [20] = tested on: HCT-15 colon
# [21] = tested on: MOLT-4 leukemia
# [22] = tested on: HOP-92 NSCLC
# [23] = tested on: MCF7 breast
# [24] = tested on: HL-60(TB) leukemia
# [25] = tested on: NCI/ADR-RES ovarian
# [26] = tested on: T-47D breast
# [27] = tested on: K-562 leukemia
# [28] = tested on: UACC-62 melanoma
# [29] = tested on: KM12 colon
# [30] = tested on: LOX IMVI melanoma
# [31] = tested on: HCC-2998 colon
# [32] = tested on: ACHN renal
# [33] = tested on: TK-10 renal
# [34] = tested on: EKVX NSCLC
# [35] = tested on: CAKI-1 renal
# [36] = tested on: NCI-H460 lung
# [37] = tested on: SK-MEL-5 melanoma
# [38] = tested on: SR leukemia
# [39] = tested on: OVCAR-4 ovarian
# [40] = tested on: 786-0 renal
# [41] = tested on: SF-539 CNS
# [42] = tested on: UACC-257 melanoma
# [43] = tested on: SNB-19 CNS
# [44] = tested on: U251 CNS
# [45] = tested on: SNB-75 CNS
# [46] = tested on: MDA-N
# [47] = tested on: HT29 colon
# [48] = tested on: SK-MEL-28 melanoma
# [49] = tested on: CCRF-CEM leukemia
# [50] = tested on: A549 NSCLC
# [51] = tested on: NCI-H226 lung
# [52] = tested on: SN12C renal
# [53] = tested on: IGROV1 ovarian
# [54] = tested on: NCI-H23 lung
# [55] = tested on: SW-620 colon
# [56] = tested on: OVCAR-8 ovarian
# [57] = tested on: RPMI-8226 leukemia
# [58] = tested on: UO-31 renal
smiles,measurement,setting,value
O=c1c(-c2c(-c3ccccc3)oc3ccc(Cl)cc3c2=O)c(-c2ccccc2)oc2ccc(Cl)cc12,TGI,[1],> 100 µM
same,TGI,[2],> 92.3 µM
same,TGI,[3],> 100 µM
same,TGI,[4],> 61.4 µM
same,TGI,[5],> 100 µM
same,TGI,[6],> 100 µM
same,TGI,[7],> 100 µM
same,TGI,[8],> 100 µM
same,TGI,[9],> 100 µM
same,TGI,[10],> 100 µM
same,TGI,[11],> 100 µM
same,TGI,[12],> 79.4 µM
same,TGI,[13],> 100 µM
same,TGI,[14],> 83.7 µM
same,TGI,[15],> 100 µM
same,TGI,[16],> 100 µM
same,TGI,[17],> 100 µM
same,TGI,[18],> 89.4 µM
same,TGI,[19],> 100 µM
same,TGI,[20],> 100 µM
same,TGI,[21],> 100 µM
same,TGI,[22],> 95 µM
same,TGI,[23],> 100 µM
same,TGI,[24],0.606 µM
same,TGI,[25],> 100 µM
same,TGI,[26],> 100 µM
same,TGI,[27],> 100 µM
same,TGI,[28],> 100 µM
same,TGI,[29],> 100 µM
same,TGI,[30],> 100 µM
same,TGI,[31],> 100 µM
same,TGI,[32],> 100 µM
same,TGI,[33],> 100 µM
same,TGI,[34],> 100 µM
same,TGI,[35],> 100 µM
same,TGI,[36],> 100 µM
same,TGI,[37],> 100 µM
same,TGI,[38],> 100 µM
same,TGI,[39],> 100 µM
same,TGI,[40],> 100 µM
same,TGI,[41],> 100 µM
same,TGI,[42],> 100 µM
same,TGI,[43],> 100 µM
same,TGI,[44],> 100 µM
same,TGI,[45],> 62.2 µM
same,TGI,[46],> 100 µM
same,TGI,[47],> 100 µM
same,TGI,[48],> 100 µM
same,TGI,[49],> 100 µM
same,TGI,[50],> 100 µM
same,TGI,[51],> 100 µM
same,TGI,[52],> 100 µM
same,TGI,[53],> 100 µM
same,TGI,[54],> 100 µM
same,TGI,[55],> 100 µM
same,TGI,[56],> 100 µM
same,TGI,[57],> 100 µM
CCCOc1ccc(-c2nc(-c3ccc(N=Cc4ccc(N(CCOS(C)(=O)=O)CCOS(C)(=O)=O)cc4C)cc3)cs2)cc1,TGI,[1],4.99 µM
same,TGI,[2],77.8 µM
same,TGI,[3],77.9 µM
same,TGI,[4],43.7 µM
same,TGI,[5],> 85.2 µM
same,TGI,[6],> 95.6 µM
same,TGI,[7],50.9 µM
same,TGI,[8],18.1 µM
same,TGI,[9],> 71.7 µM
same,TGI,[10],> 86.4 µM
same,TGI,[11],55.4 µM
same,TGI,[12],45.5 µM
same,TGI,[13],28.9 µM
same,TGI,[14],86 µM
same,TGI,[15],14.9 µM
same,TGI,[16],24.2 µM
same,TGI,[17],> 100 µM
same,TGI,[18],43.2 µM
same,TGI,[19],> 90.9 µM
same,TGI,[20],> 72.2 µM
same,TGI,[21],66.6 µM
same,TGI,[22],52.7 µM
same,TGI,[23],> 100 µM
same,TGI,[24],54 µM
same,TGI,[25],> 84.6 µM
same,TGI,[26],> 92.1 µM
same,TGI,[27],> 100 µM
same,TGI,[28],> 69.6 µM
same,TGI,[29],42 µM
same,TGI,[30],66.8 µM
same,TGI,[31],26.8 µM
same,TGI,[32],18.7 µM
same,TGI,[33],41.1 µM
same,TGI,[34],56.9 µM
same,TGI,[58],48 µM
same,TGI,[35],12.8 µM
same,TGI,[36],24 µM
same,TGI,[37],> 71.3 µM
same,TGI,[38],57 µM
same,TGI,[39],81.9 µM
same,TGI,[40],26.5 µM
same,TGI,[41],48.8 µM
same,TGI,[42],> 100 µM
same,TGI,[43],> 94.5 µM
same,TGI,[44],52.4 µM
same,TGI,[45],18 µM
same,TGI,[46],> 85 µM
same,TGI,[47],> 73.9 µM
same,TGI,[48],> 100 µM
same,TGI,[49],> 100 µM
same,TGI,[50],34.2 µM
same,TGI,[51],84.5 µM
same,TGI,[52],> 92.6 µM
same,TGI,[53],> 67.1 µM
same,TGI,[54],30.8 µM
same,TGI,[55],> 100 µM
same,TGI,[56],> 100 µM
same,TGI,[57],> 100 µM
